Results on 5 compounds are retold here after patent US4760085A, “Use of D,L-and D-carazolol as anti-glaucoma agent” (Boehringer Mannheim GmbH, priority 1983, dated 1988).

The test system of data set [1] is internal pressure of the eye. Put plainly: Experiments on lowering of the internal pressure of the eye (species not stated). The class given is in vivo.
Data set [2] has as its system β-blocking action. The note with it: humans and animals; cited from earlier work.
Data set [3] relates to tachycardic effect of 1 mcg/kg i.v. Isoprenaline (β-blocking). Put plainly: β-blocking activity: inhibition of isoprenaline-induced tachycardia in conscious rabbits. In kind it is in vivo. The note with it: for ED50: Oryctolagus cuniculus, iv, read-out: β-blocking activity ID50 (inhibition dose 50% of the tachycardic effect of 1 mcg/kg i.v. Isoprenaline). How it is done:
D,L-Carazolol, D-carazolol and L-carazolol were tested in respect to a β-blocking and intraocular pressure-reducing activity. The β-blocking activity was measured by means of a tachycardic effect caused by 1 μg/kg i.v. isoprenaline (Dr. Bartsch et al in Drug Research 27 (I), 5, p. 1022 et seq (1977).

For data set [4], the system named is glaucoma patients. Nature of the data set: Compatibility / side effects of eye drops in humans. In kind it is in vivo. How it is done: (§1) For this purpose, patients were treated once per day with D,L-carazolol eye drops.
Data set [5] deals with intraocular pressure in water loaded rabbits. Nature of the data set: Intraocular pressure reduction in water loaded conscious rabbits. In kind it is in vivo. Particulars: one drop of 0.05% solution; for Reduction of the intraocular pressure in water loaded rabbits after administration of 0.05% solution: conscious rabbits, water loading. The method, then:
For measurement of an intraocular pressure-reducing effect the intraocular pressure in some test animals (rabbits) were increased by means of water loading (Method: Th. McDonalds et al in Arch. Ophtal. 82, p. 381, 1969). Thereafter the influence of one drop of a 0,05% solution of D,L-carazolol respectively the enantiomeres thereof were measured.

A short description of data set [6]: Side effects observed in the experiments (species not stated). The class given is in vivo.
Data set [7] relates to internal eye pressure in glaucoma patients. Put plainly: Lowering of internal eye pressure in humans (glaucoma patients), eye drops. The class given is in vivo. How it is done:
as §1

Data set [8] concerns β-blocking action. Particulars: Circ. Res., 49, 326-336/1981; cited from earlier work.
Data set [9] concerns glaucoma patients. Particulars: cited from earlier work.
Data set [10] relates to pressure of the eye in glaucoma patients. Particulars: glaucoma patients (Krieglstein 1978); cited from earlier work.
[11] abbreviates: 0.01% solution of D,L-carazolol.
[12] abbreviates: D-carazolol, concentration not given.

Read-outs that look alike come from different tables or passages of the source.

Turning to `CC(C)NCC(O)COc1cccc2[nH]c3ccccc3c12` (racemic) [D,L-Carazolol, (D,L)-1-carbazolyl-(4)-oxy-3-isopropylaminopropan-2-ol], the “lowering of the inner pressure of the eye” value in [1] (setting [11]) was “significant lowering of the inner pressure of the eye”. The β-blocking action result with β-blocking action [2] is listed as “outstanding β-blocking action”. Moreover, the ED50 in [3] was 3 µg/kg. Besides, the “β-blocking activity (in words)” value in [3] (isoprenaline tachycardia) is “good β-blocking activity”. For the same compound, in the data set on glaucoma patients [4] (humans, 0.01% solution), the “known side effects (anaesthetised feeling in the eye or head region, strong burning sensation)” value is listed as “did not give rise to any of the known side effects”. In the data set with glaucoma patients [4] (humans, eye drops), the compatibility entry is on record as “good compatibility”. For the same compound, the “Reduction of the intraocular pressure in water loaded rabbits after administration of 0.05% solution” value (“Reduction … of 0.05% solution” below) in data set [5] was 12%. The undesired side effects result in data set [6] (setting [11]) is on record as “without any undesired side effects being observed”. Moreover, the “lowering of internal eye pressure” value in [7] (glaucoma patients, D,L-carazolol eye drops once per day, 0.005 to 0.03%) is “significantly lower the internal eye pressure in glaucoma patients”.

`CC(C)NC[C@@H](O)COc1cccc2[nH]c3ccccc3c12` [D-Carazolol, R(+)-1-carbazolyl-(4)-oxy-3-isopropylaminopropan-2-ol]: in [1] (setting [12]), the “lowering of the internal pressure of the eye” value is reported as “significant lowering of the internal pressure of the eye”. In data set [3], the ED50 is 222 µg/kg. In the data set on glaucoma patients [4] (D-carazolol and salts thereof), the side effects result is given as “in no case were side effects observed”. The “Reduction … of 0.05% solution” value in data set [5] came out at 21%. Further, the “intraocular pressure-reducing activity (in words)” value in data set [5] (water loaded rabbits) was “most effective compound”. Also, the β-blocking action entry in the data set on β-blocking action [8] was “no such action was ascertained”. The “systemic side effects typical of β-blockers” value in data set [6] (setting [12]) was “without the occurrence of systemic side effects which are typical of β-blockers”. Moreover, the “lowering of internal eye pressure” value in data set [7] (D-carazolol and salts thereof) is given as “significant lowering of the internal eye pressure”.

Take `CC(C)NC[C@H](O)COc1cccc2[nH]c3ccccc3c12` [L-Carazolol]: in [3], the ED50 was 1.6 µg/kg. The “Reduction … of 0.05% solution” value in data set [5] came to 5%.

Consider `CC(C)(C)NC[C@H](O)COc1nsnc1N1CCOCC1` [Timolol, S-(-)-1-(tert.-butylamino)-3-[(4-morpholino-1,2,5-thiadiazol-3-yl)-oxy]-propan-2-ol], for which, in the data set with glaucoma patients [9] (after administration of timolol (Vonwil et al. 1981)), the “rare but very serious incidents as a result of the β-blockade” value was “asthmatic attacks, heart rhythm disturbances and even some fatal cases”. Also, in the data set on glaucoma patients [9] (commercially available 0.5% solution, especially long-term therapy (Nielsen 1981)), the “side effects in glaucoma therapy” value is “significant lowering of the blood pressure and the development of dry eyes”.

`CC(C)NCC(O)COc1cccc2ccccc12` (stereo not shown) [propranolol]: the “reduction of the pressure of the eye” value in [10] is given as “can reduce the pressure of the eye in glaucoma patients”.
